Results from the supplement of paper PMC10307832.

Experiments:
Assay in all cases: relative viability (nuclei count vs DMSO), 5 days (fraction); higher = more cells survive
[1] = compound: COC1=CC=C(C=C1)CN2C=CC3=C2C=C(C=C3)C(=O)NO + COc1cc2c(Oc3ccc(NC(=O)C4(C(=O)Nc5ccc(F)cc5)CC4)cc3F)ccnc2cc1OCCCN1CCOCC1 [Foretinib] (partner 0.25 µM)
Outline: (§1)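 Five library-drug doses in √10 steps were combined with a fixed anchor-drug dose, or a single drug was given alone, by pin tool to lung cancer cell lines in 1536-well plates the day after seeding. Nuclei were stained and counted after 5 days. Relative viability is the nuclei count in treated wells over that in vehicle wells, taken as the median of duplicate plates.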

[2] = compound: COC1=CC=C(C=C1)CN2C=CC3=C2C=C(C=C3)C(=O)NO + CS(=O)(=O)N1CCN(Cc2cc3nc(-c4cccc5[nH]ncc45)nc(N4CCOCC4)c3s2)CC1 [Pictilisib] (partner 1 µM)
Outline: as §1

[3] = compound: C[C@]1(c2nc3c(C(N)=O)cccc3[nH]2)CCCN1 [Veliparib] + Cc1cc(Nc2cc(N3CCN(C)CC3)nc(Sc3ccc(NC(=O)C4CC4)cc3)n2)n[nH]1 [Tozasertib] (partner 0.1 µM)
Outline: as §1

[4] = compound: C[C@]1(c2nc3c(C(N)=O)cccc3[nH]2)CCCN1 [Veliparib] + O=C(c1cc(Cc2n[nH]c(=O)c3ccccc23)ccc1F)N1CCN(C(=O)C2CC2)CC1 [Olaparib] (partner 8 µM)
Outline: as §1

NCI-H1755
relative viability ([1]; first compound 0.08 µM): 0.892 | relative viability ([1]; first compound 0.253 µM): 1.01 | relative viability ([1]; first compound 0.8 µM): 0.915 | relative viability ([1]; first compound 2.53 µM): 0.941 | relative viability ([1]; first compound 8 µM): 0.946 | relative viability ([2]; first compound 0.08 µM): 0.267 | relative viability ([2]; first compound 0.253 µM): 0.458 | relative viability ([2]; first compound 0.8 µM): 0.51 | relative viability ([2]; first compound 2.53 µM): 0.383 | relative viability ([2]; first compound 8 µM): 0.363 | relative viability ([3]; first compound 0.02 µM): 0.557 | relative viability ([3]; first compound 0.06325 µM): 0.514 | relative viability ([3]; first compound 0.2 µM): 0.569 | relative viability ([3]; first compound 0.6325 µM): 0.571 | relative viability ([3]; first compound 2 µM): 0.552 | relative viability ([4]; first compound 0.02 µM): 0.821 | relative viability ([4]; first compound 0.06325 µM): 0.798 | relative viability ([4]; first compound 0.2 µM): 0.877 | relative viability ([4]; first compound 0.6325 µM): 0.881 | relative viability ([4]; first compound 2 µM): 0.915

HCC-78
relative viability ([1]; first compound 0.08 µM): 0.529 | relative viability ([1]; first compound 0.253 µM): 0.629 | relative viability ([1]; first compound 0.8 µM): 0.594 | relative viability ([1]; first compound 2.53 µM): 0.585 | relative viability ([1]; first compound 8 µM): 0.6 | relative viability ([2]; first compound 0.253 µM): 0.192 | relative viability ([2]; first compound 0.8 µM): 0.199 | relative viability ([2]; first compound 2.53 µM): 0.213 | relative viability ([2]; first compound 8 µM): 0.216 | relative viability ([3]; first compound 0.02 µM): 0.402 | relative viability ([3]; first compound 0.06325 µM): 0.381 | relative viability ([3]; first compound 0.2 µM): 0.404 | relative viability ([3]; first compound 0.6325 µM): 0.35 | relative viability ([3]; first compound 2 µM): 0.404 | relative viability ([4]; first compound 0.02 µM): 0.755 | relative viability ([4]; first compound 0.06325 µM): 0.745 | relative viability ([4]; first compound 0.2 µM): 0.82 | relative viability ([4]; first compound 0.6325 µM): 0.742 | relative viability ([4]; first compound 2 µM): 0.806

NCI-H2405
relative viability ([1]; first compound 0.08 µM): 1.01 | relative viability ([1]; first compound 0.253 µM): 1.06 | relative viability ([1]; first compound 0.8 µM): 1.07 | relative viability ([1]; first compound 2.53 µM): 1.09 | relative viability ([1]; first compound 8 µM): 1.02 | relative viability ([2]; first compound 0.08 µM): 0.316 | relative viability ([2]; first compound 0.253 µM): 0.378 | relative viability ([2]; first compound 0.8 µM): 0.532 | relative viability ([2]; first compound 2.53 µM): 0.405 | relative viability ([2]; first compound 8 µM): 0.331 | relative viability ([3]; first compound 0.02 µM): 0.793 | relative viability ([3]; first compound 0.06325 µM): 0.689 | relative viability ([3]; first compound 0.2 µM): 0.714 | relative viability ([3]; first compound 0.6325 µM): 0.724 | relative viability ([3]; first compound 2 µM): 0.777 | relative viability ([4]; first compound 0.02 µM): 0.927 | relative viability ([4]; first compound 0.2 µM): 0.888 | relative viability ([4]; first compound 0.6325 µM): 0.872 | relative viability ([4]; first compound 2 µM): 0.939

NCI-H2085
relative viability ([1]; first compound 0.08 µM): 0.906 | relative viability ([1]; first compound 0.253 µM): 0.979 | relative viability ([1]; first compound 0.8 µM): 1.12 | relative viability ([1]; first compound 2.53 µM): 0.84 | relative viability ([1]; first compound 8 µM): 0.991 | relative viability ([2]; first compound 0.08 µM): 0.44 | relative viability ([2]; first compound 0.253 µM): 0.491 | relative viability ([2]; first compound 0.8 µM): 0.53 | relative viability ([2]; first compound 2.53 µM): 0.492 | relative viability ([2]; first compound 8 µM): 0.426 | relative viability ([3]; first compound 0.02 µM): 0.737 | relative viability ([3]; first compound 0.06325 µM): 0.888 | relative viability ([3]; first compound 0.2 µM): 0.75 | relative viability ([3]; first compound 0.6325 µM): 0.738 | relative viability ([3]; first compound 2 µM): 0.849 | relative viability ([4]; first compound 0.02 µM): 0.789 | relative viability ([4]; first compound 0.06325 µM): 0.776 | relative viability ([4]; first compound 0.2 µM): 0.779 | relative viability ([4]; first compound 0.6325 µM): 0.708 | relative viability ([4]; first compound 2 µM): 0.734

LXF-289
relative viability ([1]; first compound 0.253 µM): 0.994 | relative viability ([1]; first compound 0.8 µM): 1.01 | relative viability ([1]; first compound 2.53 µM): 1.02 | relative viability ([1]; first compound 8 µM): 1.03 | relative viability ([2]; first compound 0.08 µM): 0.309 | relative viability ([2]; first compound 0.253 µM): 0.779 | relative viability ([2]; first compound 0.8 µM): 0.754 | relative viability ([2]; first compound 2.53 µM): 0.799 | relative viability ([2]; first compound 8 µM): 0.723 | relative viability ([3]; first compound 0.02 µM): 0.194 | relative viability ([3]; first compound 0.06325 µM): 0.193 | relative viability ([3]; first compound 0.2 µM): 0.233 | relative viability ([3]; first compound 0.6325 µM): 0.208 | relative viability ([3]; first compound 2 µM): 0.216 | relative viability ([4]; first compound 0.02 µM): 1 | relative viability ([4]; first compound 0.06325 µM): 1.04 | relative viability ([4]; first compound 0.2 µM): 1.01 | relative viability ([4]; first compound 0.6325 µM): 0.986 | relative viability ([4]; first compound 2 µM): 1.16

NCI-H1650
relative viability ([1]; first compound 0.08 µM): 0.764 | relative viability ([1]; first compound 0.253 µM): 1.14 | relative viability ([1]; first compound 0.8 µM): 1.29 | relative viability ([1]; first compound 2.53 µM): 1.27 | relative viability ([1]; first compound 8 µM): 0.766 | relative viability ([2]; first compound 0.08 µM): 0.173 | relative viability ([2]; first compound 0.253 µM): 0.595 | relative viability ([2]; first compound 0.8 µM): 0.567 | relative viability ([2]; first compound 2.53 µM): 0.541 | relative viability ([2]; first compound 8 µM): 0.32 | relative viability ([3]; first compound 0.06325 µM): 0.441 | relative viability ([3]; first compound 0.2 µM): 0.486 | relative viability ([3]; first compound 0.6325 µM): 0.448 | relative viability ([3]; first compound 2 µM): 0.526 | relative viability ([4]; first compound 0.02 µM): 0.918 | relative viability ([4]; first compound 0.06325 µM): 0.679 | relative viability ([4]; first compound 0.2 µM): 0.729 | relative viability ([4]; first compound 0.6325 µM): 0.707 | relative viability ([4]; first compound 2 µM): 0.757

EPLC-272H
relative viability ([1]; first compound 0.08 µM): 0.293 | relative viability ([1]; first compound 0.8 µM): 0.653 | relative viability ([1]; first compound 2.53 µM): 0.704 | relative viability ([1]; first compound 8 µM): 0.662 | relative viability ([2]; first compound 0.08 µM): 0.233 | relative viability ([2]; first compound 0.253 µM): 0.333 | relative viability ([2]; first compound 0.8 µM): 0.341 | relative viability ([2]; first compound 2.53 µM): 0.287 | relative viability ([2]; first compound 8 µM): 0.218 | relative viability ([3]; first compound 0.02 µM): 0.273 | relative viability ([3]; first compound 0.06325 µM): 0.227 | relative viability ([3]; first compound 0.2 µM): 0.224 | relative viability ([3]; first compound 0.6325 µM): 0.2 | relative viability ([3]; first compound 2 µM): 0.249 | relative viability ([4]; first compound 0.06325 µM): 0.764 | relative viability ([4]; first compound 0.2 µM): 1.05 | relative viability ([4]; first compound 0.6325 µM): 0.733 | relative viability ([4]; first compound 2 µM): 0.715

NCI-H647
relative viability ([1]; first compound 0.08 µM): 0.707 | relative viability ([1]; first compound 0.253 µM): 1.34 | relative viability ([1]; first compound 0.8 µM): 1.09 | relative viability ([1]; first compound 2.53 µM): 1.2 | relative viability ([1]; first compound 8 µM): 1.38 | relative viability ([2]; first compound 0.253 µM): 0.42 | relative viability ([2]; first compound 0.8 µM): 0.523 | relative viability ([2]; first compound 2.53 µM): 0.373 | relative viability ([2]; first compound 8 µM): 0.308 | relative viability ([3]; first compound 0.02 µM): 0.28 | relative viability ([3]; first compound 0.06325 µM): 0.346 | relative viability ([3]; first compound 0.2 µM): 0.263 | relative viability ([3]; first compound 0.6325 µM): 0.357 | relative viability ([3]; first compound 2 µM): 0.254 | relative viability ([4]; first compound 0.02 µM): 0.657 | relative viability ([4]; first compound 0.06325 µM): 0.465 | relative viability ([4]; first compound 0.2 µM): 0.659 | relative viability ([4]; first compound 0.6325 µM): 0.505 | relative viability ([4]; first compound 2 µM): 0.572

NCI-H2347
relative viability ([1]; first compound 0.253 µM): 0.527 | relative viability ([1]; first compound 0.8 µM): 0.991 | relative viability ([1]; first compound 2.53 µM): 0.775 | relative viability ([1]; first compound 8 µM): 0.575 | relative viability ([2]; first compound 0.08 µM): 0.494 | relative viability ([2]; first compound 0.253 µM): 0.652 | relative viability ([2]; first compound 0.8 µM): 0.596 | relative viability ([2]; first compound 8 µM): 0.462 | relative viability ([3]; first compound 0.02 µM): 0.55 | relative viability ([3]; first compound 0.06325 µM): 0.501 | relative viability ([3]; first compound 0.2 µM): 0.492 | relative viability ([3]; first compound 0.6325 µM): 0.553 | relative viability ([3]; first compound 2 µM): 0.541 | relative viability ([4]; first compound 0.02 µM): 0.587 | relative viability ([4]; first compound 0.06325 µM): 0.549 | relative viability ([4]; first compound 0.2 µM): 0.597 | relative viability ([4]; first compound 0.6325 µM): 0.586 | relative viability ([4]; first compound 2 µM): 0.576
